According to patent US10233177B2, “TRPV1 vanilloid receptor antagonists with a bicyclic portion” (Serentrix LLC, priority 2010, dated 2019):
Where two headings read alike, the source gives them in different places.

Assays:
[1] = Rectal temperature measurements in rats; type: in vivo; settings: rat, 10 μmol/Kg intraperitoneal
Description: Rectal Temperature Measurements in Rats
Body temperature was measured by a digital thermometer inserted at a depth of approximately 3 cm into the rectum of each animal (male SD rats, Charles River, Italy, 100 to 250 g). A pre-dose value of body temperature was measured prior to the administration of the test substance or vehicles. Animals were distributed among groups by the manual method to achieve the almost same mean values of body temperature of the groups based on the pre-dose value. All compounds were dissolved in 6% DMSO/6% Tween80 and then intraperitoneally (10 μmol/Kg/5 ml) administrated to rats.

[2] = system: CFA-induced thermal hyperalgesia; assay: CFA-induced thermal hyperalgesia in rats (Hargreaves' test); type: in vivo; settings: rat, 30 μmol/kg oral; read-out: reversal of CFA-induced thermal hyperalgesia (maximal reversal activity / % of reversion)
Description: CFA-Induced Thermal Hyperalgesia in Rats
This method was used for the determination of acute nociceptive thermal threshold and combines a chemical stimulus and heat for measuring pain sensitivity. Male SD rats (Charles River, Italy) weighing 100 to 250 gr. were used. Anti-hyperalgesic effects were investigated by using the Hargreaves' test. Complete Freund's Adjuvant (CFA; Sigma, USA) was used to induce thermal hyperalgesia. CFA contains killed Mycobacterium tuberculosis and is designed to provide continuous release of antigens necessary for stimulating a strong, persistent immune response. This effect causes the reduction of the hind paw withdrawal response latency induced by heat during the Hargreaves' test. Thermal stimulation was performed 30, 60, 120 and 180 (240 min only if needed) minutes after the oral administration of the antagonists. During the CFA-induced thermal hyperalgesia experiments two different solubilization protocols were used: when items presented an amino group, a pH=2 aqueous solution of HCl and 2.5% Tween80 was used; otherwise molecules were suspended in 0.5% Methocel and 2.5% Tween80. Compounds were orally administrated (30 μmol/kg/10 ml) to rats 24 hours after the CFA treatment. CFA was injected into the plantar surface of a rat's hind paw at a fixed dose of 50 μl by the use of a micro syringe.

[3] = system: CCI-induced mechanical hyperalgesia; assay: CCI-induced mechanical hyperalgesia (Randall-Selitto paw pressure); type: in vivo; settings: rat CCI, 30 μmol/kg oral
Description: CCI-Induced Mechanical Hyperalgesia
Male SD rats (Charles River, Italy) weighing 250 g were anaesthetized with sodium pentobarbital (60 mg/kg, intraperitoneal (i.p.), 0.1 ml/10 g) and, under a dissecting microscope, the right common sciatic nerve was exposed at the level of the mid thigh and, proximal to the trifurcation of the nerve; four ligatures (4/0 chromic silk, Ethicon) were loosely tied around it, at about 0.5 mm spacing, until they elicited a brief twitch in the respective hind, taking care to preserve epineural circulation. Sham-operated animals (sciatic exposure without ligation) were used as controls. 14 days after the surgery, mechanical hyperalgesia was assessed using an analgesimeter (Ugo Basile, Italy, Randall-Selitto analgesic apparatus). This device generated a mechanical force on the affected paw and the nociceptive threshold was defined as the force (in g) at which the rat withdraws the paw (with a cut-off of 450 g). Two baseline measurement values were obtained 75 and 45 min before the actual test. After the second baseline measurement, animals were randomly allocated to the different treatment groups. Paw pressure test was performed 0, 75, 120, 165, 210 and 300 min after the oral administration of the compounds. All tested compounds were orally administrated (30 μmol/kg/10 ml) to rats by gavage.

TRPV1 = TRPV1 (Rattus norvegicus (Rat), UniProt O35433); assay: Ca2+ fluorescence measurements in cultured rat dorsal root ganglia neurons (capsaicin-induced calcium uptake); type: cell-based; settings: rat DRG neurons; for inhibition at 0.3 µM: DRG neuron
Chain of TRPV1 (O35433 whole entry): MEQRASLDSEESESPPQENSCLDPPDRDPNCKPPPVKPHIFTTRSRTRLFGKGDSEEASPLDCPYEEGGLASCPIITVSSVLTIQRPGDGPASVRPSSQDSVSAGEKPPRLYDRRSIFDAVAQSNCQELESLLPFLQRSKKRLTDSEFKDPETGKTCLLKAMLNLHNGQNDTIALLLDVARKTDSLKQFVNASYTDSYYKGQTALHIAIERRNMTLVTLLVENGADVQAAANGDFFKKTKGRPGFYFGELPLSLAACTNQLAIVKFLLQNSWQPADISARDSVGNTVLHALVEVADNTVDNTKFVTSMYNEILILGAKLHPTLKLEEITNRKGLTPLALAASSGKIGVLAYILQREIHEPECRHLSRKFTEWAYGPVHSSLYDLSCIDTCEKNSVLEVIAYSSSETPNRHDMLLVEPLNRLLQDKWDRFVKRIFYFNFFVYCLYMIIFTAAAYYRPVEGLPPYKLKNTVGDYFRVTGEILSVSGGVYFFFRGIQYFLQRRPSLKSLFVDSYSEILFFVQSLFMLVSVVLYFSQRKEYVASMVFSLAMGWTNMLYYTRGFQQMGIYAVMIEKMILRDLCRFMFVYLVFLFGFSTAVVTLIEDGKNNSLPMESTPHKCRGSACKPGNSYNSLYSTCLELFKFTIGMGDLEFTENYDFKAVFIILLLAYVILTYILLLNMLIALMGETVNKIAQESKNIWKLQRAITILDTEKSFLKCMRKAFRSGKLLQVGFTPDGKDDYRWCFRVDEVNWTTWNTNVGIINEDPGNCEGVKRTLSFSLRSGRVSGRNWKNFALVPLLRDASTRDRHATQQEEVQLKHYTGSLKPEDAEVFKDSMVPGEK

[4] = 300 nM, read-out: abolition of capsaicin response at 300 nM
[5] = Table 1, formula IA-C, 300 nM against calcium uptake induced by 30 nM capsaicin, read-out: % inhibition at 300 nM
[6] = capsaicin-induced calcium uptake, read-out: inhibition of the calcium uptake
[7] = Table 1, against capsaicin-evoked [Ca2+]i mobilization, read-out: IC50
[8] = read-out: IC50 against capsaicin-evoked [Ca2+]i mobilization

| effect on rectal body temperature [1] | inhibition at 0.3 µM (TRPV1; [4]) | inhibition at 0.3 µM (TRPV1; [5]) | inhibition at 0.3 µM (TRPV1; [6]) | IC50 (TRPV1; [7]) | IC50 (TRPV1; [8]) | Compound | inhibition in vivo at 30 µmol/kg [2] | anti-hyperalgesic activity (in words) [3] | reversal of hyperalgesia within the first 2 hours [3] |
| --- | --- | --- | --- | --- | --- | --- | --- | --- | --- |
| −1.5 °C | ~100% | 100% | > 80% | 1.9 nM | 1.9 nM | O=C(NCc1ccc(C(F)(F)F)cc1N1CCCCC1)Nc1cccc2oc(=O)[nH]c12 [Example 31, 1-(4-(trifluoromethyl)-2-(piperidin-1-yl)benzyl)-3-(2,3-dihydro-2-oxobenzo[d]oxazol-4-yl)urea] | 47% | relevant and long lasting anti-hyperalgesic activity | at least 80% |
| +0.8 °C | ~100% | 94% | > 80% | 3 nM | 3 nM | CN(C)c1cc(C(F)(F)F)ccc1CNC(=O)Nc1cccc2c1OCC(=O)N2 [Example 46, 1-(2-(dimethylamino)-4-(trifluoromethyl)benzyl)-3-(3,4-dihydro-3-oxo-2H-benzo[b][1,4]oxazin-8-yl)urea] | 50% | relevant and long lasting anti-hyperalgesic activity | at least 80% |
